Experimental data published in patent US20070105928A1, “6-Pentafluorophenyl-triazolopyrimidines, method for their production and their use for combating pathogenic fungi, in addition to agents containing said substances” (priority 2003, published 2007).

Key:
[1] = tested on: Pyrenophora teres; assay: Activity against net blotch of barley caused by Pyrenophora teres, protective application; type: in vivo, Pyrenophora [syn. Drechslera] teres; conditions: 250 ppm, barley seedlings cultivar Hanna, protective spray, assessed after 6 days; untreated plants 90% infected
Procedure: The active compounds were prepared as a stock solution with 0.25% by weight of active compound in acetone or DMSO. 1% by weight of the emulsifier Uniperol® EL (wetting agent having emulsifying and dispersing action based on ethoxylated alkylphenols) was added to this solution, and the mixture was diluted with water to the desired concentration. Leaves of pot-grown barley seedlings of the cultivar “Hanna” were sprayed to run off point with an aqueous suspension having the concentration of active compound stated below. 24 hours after the spray coating had dried on, the test plants were inoculated with an aqueous suspension of Pyrenophora [syn. Drechslera] teres, the causative agent of net blotch. The test plants were subsequently placed in a greenhouse at 20-24° C. and 95-100% relative atmospheric humidity. After 6 days, the extent of development of the disease was determined visually in percent infection of the total leaf area.

[2] = tested on: Botrytis cinerea; assay: Activity against gray mold on bell pepper leaves caused by Botrytis cinerea, protective application; type: in vivo; conditions: 63 ppm, bell pepper seedlings cultivar Neusiedler Ideal Elite, protective spray, assessed after 5 days; untreated plants 90% infected
Procedure: The active compounds were prepared as a stock solution with 0.25% by weight of active compound in acetone or DMSO. 1% by weight of the emulsifier Uniperol® EL (wetting agent having emulsifying and dispersing action based on ethoxylated alkylphenols) was added to this solution, and the mixture was diluted with water to the desired concentration. Bell pepper seedlings of the cultivar “Neusiedler Ideal Elite” were, after 2 to 3 leaves were well developed, sprayed to runoff point with an aqueous suspension having the concentration of active compound stated below. The next day, the treated plants were inoculated with a spore suspension of Botrytis cinerea which contained 1.7×10^6 spores/ml in a 2% strength aqueous biomalt solution. The test plants were then placed in a dark climatized chamber at 22-24° C. and high atmospheric humidity. After 5 days, the extent of the fungal infection on the leaves could be determined visually in %.

SMILES: Cc1nc2ncnn2c(N2CCC(C)CC2)c1-c1c(F)c(F)c(F)c(F)c1F [Compound I-3, 5-methyl-6-(pentafluorophenyl)-7-(4-methylpiperidinyl)-1,2,4-triazolo[1,5a]pyrimidine]
- infection of the total leaf area [1]: 5%
- fungal infection on the leaves [2]: no infection
